Experimental data as given in patent publication US20240016863A1, “LACTOBACILLUS JOHNSONII AND METHOD FOR INCREASING THE LEVEL OF UNSATURATION IN FATTY ACID USING LACTOBACILLUS JOHNSONII OR METABOLITES THEREOF” (TCI CO., LTD., priority 2022, published 2024).

Test system: HepG2 cells
Assay: Cholesterol metabolism test (cholesterol uptake, NBD cholesterol, flow cytometer)
Assay type: cell-based, Human
Settings: U-18666A 1.25 μM, sample 0.25% (v/v)
Method: 1. Cell line: Human liver cells, purchased from ATCC (American Type Culture Collection), cell number: HB-8065, hereinafter referred to as HepG2 cells.
5. Cholesterol Uptake Cell-based Assay Kit: purchased from Cayman; product number: 600440. This cholesterol uptake cell-based assay kit included U-18666A and NBD cholesterol.
1. The HepG2 cells were inoculated into a 6-well culture plate containing 2 mL of cell medium in each well according to a density of 1×10^5 cells per well, and cultured at 37° C. for 24 h. The HepG2 cells were divided into three test groups, i.e., a Mock group, a control group and an experiment group, respectively. Each group underwent trial in triplicate.
2. […]
4. After rinsing, the cells of each group were processed according to the test process provided by the cholesterol uptake cell-based assay kit to obtain a test sample of each group; the parameters of the flow cytometer were set as excitation spectra and emission spectra of FITC, and then a green fluorescence signal of each group was detected by using the flow cytometer.
The relative cholesterol uptake in hepatocytes of all groups was calculated according to the following formula: relative cholesterol uptake in hepatocytes (%)=(green fluorescence signal of each group/green fluorescence signal of the Mock group)×100%.

relative cholesterol uptake in hepatocytes (HepG2, 20 μg/mL NBD cholesterol, 24-72 h, Mock group = 100%): 143.5%
relative cholesterol uptake in hepatocytes increased compared with the Mock group (HepG2): about 43.5%
SMILES: CCN(CC)CCO[C@H]1CC[C@@]2(C)C(=CC[C@@H]3[C@@H]2CC[C@]2(C)C(=O)CC[C@@H]32)C1 [U-18666A]
